The subject of the data set is GENE-TOX genotoxicity assays, various organisms and cells. Description: GENE-TOX mutagenicity studies. The settings on record: for call: Assay Type: In vivo carcinogenicity studies.
Where [1] appears, read: Species/Cell Type: Chinese hamster ovary (CHO) cells, Assay Type: Forward gene mutation at the HPRT locus, Assay Code: CHOT, Evaluation Type: Evaluation B (Post-1980).
[2] abbreviates: Species/Cell Type: Drosophila melanogaster, Assay Type: Sex-linked recessive lethal gene mutation, Assay Code: SRL+, Evaluation Type: Evaluation A (Pre-1980).
[3] abbreviates: Species/Cell Type: Escherichia coli polA (W3119 vs P3478), Assay Type: Rec-assay, DNA effects (bacterial DNA repair), Assay Code: RE1+, Evaluation Type: Evaluation A (Pre-1980).
Setting [4] is: Species/Cell Type: Human lymphocytes, Assay Type: Sister-chromatid exchange (SCE) in vitro, Assay Code: SCL+D, Dose Response: With dose response, Evaluation Type: Evaluation B (Post-1980).
[5] abbreviates: Species/Cell Type: Human lymphocytes, Assay Type: Sister-chromatid exchange (SCE) in vivo, Assay Code: SCY+, Evaluation Type: Evaluation B (Post-1980).
[6] abbreviates: Species/Cell Type: Human, Assay Type: Sister-chromatid exchange (SCE) in vitro, Assay Code: SC1+D, Dose Response: With dose response, Evaluation Type: Evaluation B (Post-1980).
Where [7] appears, read: Species/Cell Type: Mammalian polychromatic erythrocytes, Assay Type: Micronucleus test, chromosome aberrations, Assay Code: MNTT, Evaluation Type: Evaluation B (Post-1980).
Setting [8] is: Species/Cell Type: Nonhuman, Assay Code: CCG+, Evaluation Type: Evaluation A (Pre-1980).
Where [9] appears, read: Species/Cell Type: Salmonella typhimurium (one or more of the five standard strains: TA98, TA100, TA1535, TA1537, and TA1538), Assay Type: Histidine reverse gene mutation, Ames assay, Assay Code: SALT, Evaluation Type: Evaluation A (Pre-1980).
The mark [10] stands for this setting: Species/Cell Type: Salmonella typhimurium (one or more of the five standard strains: TA98, TA100, TA1535, TA1537, and TA1538), Assay Type: Histidine reverse gene mutation, Ames assay, Assay Code: SAL+*, Activation: With metabolic activation, Evaluation Type: Evaluation A (Pre-1980).
Setting [11] is: Species/Cell Type: Salmonella typhimurium (one or more of the five standard strains: TA98, TA100, TA1535, TA1537, and TA1538), Assay Type: Histidine reverse gene mutation, Ames assay, Assay Code: SAL+, Evaluation Type: Evaluation A (Pre-1980).
Where [12] appears, read: Species/Cell Type: Drosophila melanogaster, Assay Type: Sex-linked recessive lethal gene mutation, Assay Code: SRL-, Evaluation Type: Evaluation A (Pre-1980).
[13] abbreviates: Species/Cell Type: Neurospora crassa, Assay Type: Forward gene mutation, Assay Code: NEF+, Evaluation Type: Evaluation A (Pre-1980).
Where [14] appears, read: Species/Cell Type: Drosophila melanogaster, Assay Type: Aneuploidy, sex chromosome gain, chromosome aberrations, Assay Code: DAG+M, Evaluation Type: Evaluation A (Pre-1980).

Activity calls are given as the source filed them. How the calls were made is not given here.

For `C=O`, the mutagenic call under setting [1] is “no conclusion”; the mutagenic call under setting [2] was “active; positive”; the mutagenic call (Species/Cell Type: Drosophila melanogaster, Sex: Male, Assay Type: Heritable translocation test, chromosome aberrations, Assay Code: DHT+, Evaluation Type: Evaluation A (Pre-1980)) was “active; positive”; the mutagenic call under setting [3] was “active; positive”; the mutagenic call (Species/Cell Type: Human diploid fibroblasts, Assay Type: Unscheduled DNA synthesis (UDS) in vitro, DNA effects, Assay Code: UDHT, Evaluation Type: Evaluation A (Pre-1980)) is “no conclusion”; the mutagenic call under setting [4] is “active; positive”. Further, the mutagenic call runs as follows: under setting [5], “active; positive”; under setting [6], “active; positive”; under setting [7], “no conclusion”; (Species/Cell Type: Neurospora crassa, Assay Type: Reverse gene mutation, Assay Code: NER+, Evaluation Type: Evaluation A (Pre-1980)) “active; positive”; (Species/Cell Type: Nonhuman, Assay Type: Sister-chromatid exchange (SCE) in vitro, Assay Code: SC2+D, Dose Response: With dose response, Evaluation Type: Evaluation B (Post-1980)) “active; positive”; (Species/Cell Type: Saccharomyces cerevisiae, Assay Type: Mitotic recombination or gene conversion, Assay Code: YEC+, Evaluation Type: Evaluation A (Pre-1980)) “active; positive”. In addition, the mutagenic call (Species/Cell Type: Saccharomyces cerevisiae, Assay Type: Reverse gene mutation, Assay Code: YER+, Evaluation Type: Evaluation A (Pre-1980)) was “active; positive”. Moreover, the call under setting [8] is “active; positive”.
Consider `O[C@@H]1[C@@H]2O[C@@H]2c2ccccc2[C@H]1O`, for which the mutagenic call under setting [3] was “active; positive”.
On to `O[C@H]1[C@H](O)[C@@H](O)c2c(cc3ccc4cccc5ccc2c3c45)[C@@H]1O`, for which, under “Species/Cell Type: Chinese hamster lung (V79) cells, Assay Type: Forward gene mutation at the HPRT or ouabain locus, Assay Code: V79-*, Activation: With metabolic activation, Evaluation Type: Evaluation A (Pre-1980)”, the mutagenic call was “inactive; negative”.
On to `O=CNc1nc(-c2cc([N+](=O)[O-])c[nH]2)cs1`, for which, under setting [9], the mutagenic call is on record as “no conclusion”.
For `CCn1cc(C(=O)O)c(=O)c2ccc(C)nc21`, the mutagenic call is, setting by setting: (Species/Cell Type: Bacillus subtilis (H17 vs M45T), Assay Type: Rec-assay, spot test, DNA effects (bacterial DNA repair), Assay Code: REX+, Evaluation Type: Evaluation A (Pre-1980)) “active; positive”; under setting [2], “active; positive”; under setting [3], “active; positive”; under setting [5], “active; positive”.
Consider `COc1ccc(C(=C(c2ccc(OC)cc2)c2ccc(OC)cc2)c2ccc(OC)cc2)cc1`, for which the mutagenic call under setting [9] is reported as “no conclusion”.
As to `COc1ccc2nc3cc(Cl)ccc3c(NCCNCCCl)c2c1`, the mutagenic call (Species/Cell Type: Chinese hamster ovary (CHO) cells, Assay Type: Forward gene mutation at the HPRT locus, Assay Code: CHO+, Evaluation Type: Evaluation B (Post-1980)) is “active; positive”.
With `C[CH2][Hg][S]c1ccc(OS(=O)O)cc1`, the mutagenic call (Species/Cell Type: Saccharomyces cerevisiae, Assay Type: Aneuploidy, chromosome aberrations, Assay Code: YEN+, Evaluation Type: Evaluation A (Pre-1980)) is “active; positive”.
Take `O=[N+]([O-])c1ccc(Nc2ccc(N=C=S)cc2)cc1`: where the note is “Species/Cell Type: Salmonella typhimurium, Assay Type: Forward and reverse gene mutation, body fluid assay, Assay Code: BFU+, Evaluation Type: Evaluation A (Pre-1980)”, the mutagenic call is “active; positive”.
`COc1cc2c3c(cc(C)c2c2ccccc12)C(=O)CC3`: under setting [10], the mutagenic call was “active; positive”.
As for `CCNC(N)=O`, the mutagenic call (Species/Cell Type: Salmonella typhimurium, Assay Type: Forward and reverse gene mutation, host-mediated assay, Assay Code: HMA+, Evaluation Type: Evaluation A (Pre-1980)) is “active; positive”.
Consider `CCOC(=O)CNC(=O)C=[N+]=[N-]`, for which the mutagenic call under setting [11] is “active; positive”.
With `O=NN1CCC[C@H]1c1cccnc1`, the call under setting [8] was “active; positive”. The mutagenic call (Species/Cell Type: Rat primary hepatocytes, Assay Type: Unscheduled DNA synthesis (UDS) in vitro, DNA effects, Assay Code: UDP+, Evaluation Type: Evaluation A (Pre-1980)) was “active; positive”.
As to `CCN(CC)CCn1nc2c3c(c(C)ccc31)Sc1cc(Cl)ccc1-2`, the mutagenic call under setting [12] is “inactive; negative”; the mutagenic call (Species/Cell Type: Mouse lymphoma (L5178Y) cells, Assay Type: Forward gene mutation at the thymidine kinase (TK) locus, chromosome aberrations, Assay Code: L51+, Evaluation Type: Evaluation A (Pre-1980)) was “active; positive”; the mutagenic call under setting [13] was “active; positive”; the mutagenic call under setting [10] was “active; positive”.
As for `COc1ccc(/C=C/Cl)cc1`, the mutagenic call runs as follows: under setting [4], “active; positive”; under setting [6], “active; positive”.
As to `Cn1cnc([N+](=O)[O-])c1Sc1ncnc2nc[nH]c12`, the mutagenic call (Species/Cell Type: Drosophila melanogaster, Assay Type: Aneuploidy, partial sex chromosome loss, chromosome aberrations, Assay Code: DAP+M, Evaluation Type: Evaluation A (Pre-1980)) is “active; positive”; the mutagenic call under setting [14] is “active; positive”; the mutagenic call (Species/Cell Type: Drosophila melanogaster, Assay Type: Aneuploidy, whole sex chromosome loss, chromosome aberrations, Assay Code: DACT, Evaluation Type: Evaluation A (Pre-1980)) is listed as “no conclusion”; the mutagenic call (Species/Cell Type: Human lymphocytes, Assay Type: Sister-chromatid exchange (SCE) in vitro, Assay Code: SCLT, Evaluation Type: Evaluation B (Post-1980)) was “no conclusion”; the mutagenic call under setting [5] was “active; positive”; the mutagenic call (Species/Cell Type: Human, Assay Type: Sister-chromatid exchange (SCE) in vitro, Assay Code: SC1T, Evaluation Type: Evaluation B (Post-1980)) is listed as “no conclusion”. The mutagenic call reads like this: (Species/Cell Type: Mammalian polychromatic erythrocytes, Assay Type: Micronucleus test, chromosome aberrations, Assay Code: MNT+, Evaluation Type: Evaluation A (Pre-1980)) “active; positive”; (Species/Cell Type: Mouse, Sex: Male, Assay Type: Sperm morphology, Assay Code: SPI+, Evaluation Type: Evaluation A (Pre-1980)) “active; positive”; (Species/Cell Type: Neurospora crassa, Assay Type: Forward and reverse gene mutation, lethal mutation, host-mediated assay, Assay Code: HMD+, Evaluation Type: Evaluation A (Pre-1980)) “active; positive”; under setting [13], “active; positive”; (Species/Cell Type: Nonhuman, Assay Type: Sister-chromatid exchange (SCE) in vivo, Assay Code: SC3-, Evaluation Type: Evaluation B (Post-1980)) “inactive; negative”; (Species/Cell Type: Rodents, Sex: Male, Assay Type: Dominant lethal test, Assay Code: DLTT, Evaluation Type: Evaluation A (Pre-1980)) “no conclusion”. For the same molecule, under setting [11], the mutagenic call is “active; positive”. In addition, the call (Species/Cell Type: Nonhuman, Assay Code: CCG+L, Evaluation Type: Evaluation A (Pre-1980)) is “active; positive”.
Regarding `O=S1OCC2C(CO1)C1(Cl)C(Cl)=C(Cl)C2(Cl)C1(Cl)Cl` (stereo not given), under setting [7], the mutagenic call is recorded as “no conclusion”.
Consider `OCNc1nc(NCO)nc(NCO)n1`, for which, under setting [2], the mutagenic call is “active; positive”.
As to `CCCC(C)(COC(N)=O)COC(N)=O`, the mutagenic call is “no conclusion” (Species/Cell Type: Drosophila melanogaster, Assay Type: Aneuploidy, partial sex chromosome loss, chromosome aberrations, Assay Code: DAPT, Evaluation Type: Evaluation A (Pre-1980)); “inactive; negative” (Species/Cell Type: Drosophila melanogaster, Assay Type: Aneuploidy, whole sex chromosome loss, chromosome aberrations, Assay Code: DAC-M, Evaluation Type: Evaluation A (Pre-1980)); “inactive; negative” under setting [12].
Turning to `ClCc1ccc(-c2ccccc2)cc1`, the mutagenic call runs as follows: under setting [1], “no conclusion”; under setting [4], “active; positive”; under setting [6], “active; positive”; (Species/Cell Type: Mammalian polychromatic erythrocytes, Assay Type: Micronucleus test, chromosome aberrations, Assay Code: MNT-, Evaluation Type: Evaluation B (Post-1980)) “inactive; negative”.
Turning to `COC(=O)c1ccc(N=Nc2ccc(N(C)OC(C)=O)cc2)cc1`, the mutagenic call under setting [11] was “active; positive”.
For `NCCCC[C@H](N)C(=O)O`, the mutagenic call (Species/Cell Type: Human, Sex: Male, Assay Type: Sperm morphology, Assay Code: SPH-, Evaluation Type: Evaluation A (Pre-1980)) was “inactive; negative”.
In the case of `C=CCOC(=O)CC(C)C`, under setting [8], the call was “active; positive”.
As for `Nc1nncs1`, the mutagenic call is “active; positive” under setting [14]; “active; positive” (Species/Cell Type: Drosophila melanogaster, Assay Type: Aneuploidy, whole sex chromosome loss, chromosome aberrations, Assay Code: DAC+M, Evaluation Type: Evaluation A (Pre-1980)); “no conclusion” (Species/Cell Type: Drosophila melanogaster, Sex: Male, Assay Type: Heritable translocation test, chromosome aberrations, Assay Code: DHTT, Evaluation Type: Evaluation A (Pre-1980)).

These data come from PubChem BioAssay AID1259408 (Genetic Toxicology Data Bank (GENE-TOX), 2018).
